Assay results as given in the supplement of paper PMC10307832.

Compound: CN1CCN(c2ccc3nc(-c4c(N)c5c(F)cccc5[nH]c4=O)[nH]c3c2)CC1 [Dovitinib]
Experiment: relative viability (nuclei count vs DMSO), 5 days (fraction); higher = more cells survive
In short: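 Viability is treated-well nuclei as a fraction of vehicle-well nuclei, reported as the median across plates. Before counting, lung cancer cell lines were kept overnight at 37 °C in 1536-well plates, pinned with five √10-spaced library-drug doses on vehicle-anchored plates, and left 5 days without medium change, then fixed, permeabilised and Hoechst-stained in one step, imaged at 4× and counted by MetaXpress. A plate passed only if control CV was below 25% and at least one doubling occurred.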

| Cell Line | relative viability (0.02 µM) | relative viability (0.06325 µM) | relative viability (0.2 µM) | relative viability (0.6325 µM) | relative viability (2 µM) |
| --- | --- | --- | --- | --- | --- |
| 201T | 0.895 | 0.954 | 0.991 | 1.02 | 0.989 |
| A-427 | 0.918 | 0.901 | 1.06 | 1.06 | 1.05 |
| ABC-1 | 0.847 | 0.953 | 1.08 | 1.1 | 0.924 |
| BEN | 0.987 | 0.959 | 1.14 | 1.12 | 0.964 |
| CAL-12T | 1.07 | 1.02 | 1.02 | 0.99 | 1.1 |
| COR-L23 | 0.967 | 1.1 | 0.987 | 1.06 | 1.04 |
| COR-L 105 | 0.924 | 0.961 | 1.11 | 0.97 | 0.981 |
| Calu-6 | 0.977 | 1.01 | 0.999 | 0.981 | 0.959 |
| ChaGo-K-1 | 0.961 | 1.06 | 0.97 | 1.02 | 0.995 |
| EKVX | 1.01 | 0.983 | 1.05 | 1.04 | 1.01 |
| EMC-BAC-2 | 1.06 | 0.952 | 0.994 | 1.01 | 1.02 |
| EPLC-272H | 0.942 | 0.955 | 0.976 | 0.913 | 0.928 |
| H3255 | 0.955 | 1.02 | 0.997 | 1.01 | 1.06 |
| HARA | 1.29 | 0.948 | 1 | 1.25 | 1.01 |
| HCC-15 | 1.05 | 0.961 | 1.07 | 1.03 | 1 |
| HCC-44 | 0.979 | 0.98 | 0.991 | 1 | 1.03 |
| HCC-78 | 1.02 | 0.809 | 1.05 | 1.04 | 0.952 |
| HCC-366 | 0.989 | 0.978 | 0.993 | 0.973 | 0.982 |
| HCC-827 | 1.05 | 1.01 | 1.05 | 1.1 | 1.03 |
| HOP-62 | 0.907 | 1.03 | 1.03 | 1.06 | 1.04 |
| IA-LM | 0.864 | 1.02 | 0.962 | 0.989 | 0.873 |
| LC-2-ad | 0.977 | 0.966 | 0.965 | 0.983 | 0.98 |
| LCLC-97TM1 | 1.07 | 0.785 | 1.01 | 1 | 0.979 |
| LCLC-103H | 0.975 | 0.931 | 1.03 | 1.06 | 0.992 |
| LK-2 | 0.944 | 0.974 | 0.895 | 0.975 | 0.847 |
| LOU-NH91 | 1.02 | 0.945 | 0.939 | 1.07 | 0.984 |

| Cell Line | relative viability (0.02 µM) | relative viability (0.06325 µM) | relative viability (0.2 µM) | relative viability (0.6325 µM) | relative viability (2 µM) |
| --- | --- | --- | --- | --- | --- |
| LU99A | 0.911 | 0.944 | 0.971 | 0.97 | 1.04 |
| LXF-289 | 0.938 | 1.01 | 0.999 | 1.02 | 0.979 |
| NCI-H23 | 1.01 | 1.03 | 1.07 | 1.02 | 0.952 |
| NCI-H322M | 0.885 | 0.926 | 0.918 | 0.977 | 0.97 |
| NCI-H358 | 0.9 | 0.995 | 0.918 | 0.989 | 0.907 |
| NCI-H441 | 1.08 | 1.11 | 1.04 | 1.07 | 1.06 |
| NCI-H460 | 0.982 | 1.02 | 0.993 | 0.985 | 0.964 |
| NCI-H520 | 1.01 | 1.02 | 0.944 | 0.976 | 0.955 |
| NCI-H522 | 1 | 1.09 | 1.22 | 1.03 | 0.924 |
| NCI-H596 | 0.965 | 0.957 | 1 | 1.12 | 0.932 |
| NCI-H647 | 0.957 | 0.991 | 1.04 | 0.991 | 0.949 |
| NCI-H650 | 0.97 | 0.883 | 1 | 0.927 | 1.03 |
| NCI-H661 | 0.988 | 0.993 | 1.04 | 1.03 | 1.06 |
| NCI-H727 | 1.1 | 0.782 | 0.968 | 0.989 | 0.921 |
| NCI-H838 | 0.935 | 1 | 1.01 | 0.95 | 0.966 |
| NCI-H1355 | 1.04 | 0.931 | 1.04 | 0.989 | 1.07 |
| NCI-H1395 | 0.99 | 0.849 | 0.959 | 0.827 | 1.15 |
| NCI-H1437 | 0.973 | 1.03 | 0.971 | 1.04 | 1.02 |
| NCI-H1563 | 1.01 | 1.07 | 0.97 | 1.05 | 1.08 |
| NCI-H1648 | 0.914 | 0.805 | 1.12 | 0.908 | 0.789 |
| NCI-H1650 | 0.949 | 0.998 | 0.987 | 0.93 | 1.05 |
| NCI-H1651 | 0.986 | 0.999 | 1.03 | 1.06 | 0.963 |
| NCI-H1666 | 1.2 | 1.09 | 1.09 | 1.01 | 1.01 |
| NCI-H1703 | 1.01 | 1.08 | 0.882 | 0.637 | 0.541 |
| NCI-H1734 | 0.928 | 0.974 | 0.934 | 0.963 | 0.984 |
| NCI-H1755 | 1.04 | 1.02 | 1.01 | 0.998 | 1.02 |

| Cell Line | relative viability (0.02 µM) | relative viability (0.06325 µM) | relative viability (0.2 µM) | relative viability (0.6325 µM) | relative viability (2 µM) |
| --- | --- | --- | --- | --- | --- |
| NCI-H1792 | 0.898 | 0.818 | 0.894 | 1.04 | 0.907 |
| NCI-H1793 | 1.07 | 0.977 | 1.02 | 1.09 | 1.01 |
| NCI-H1915 | 0.937 | 0.975 | 1 | 1.01 | 0.981 |
| NCI-H1944 | 0.94 | 0.94 | 1.08 | 1.02 | 1.01 |
| NCI-H1975 | 0.916 | 0.966 | 1.03 | 0.976 | 0.947 |
| NCI-H1993 | 1.21 | 0.863 | 1 | 0.988 | 1.07 |
| NCI-H2009 | 0.881 | 1.01 | 1.02 | 1.03 | 1.12 |
| NCI-H2023 | 0.94 | 0.969 | 1.11 | 1 | 0.926 |
| NCI-H2085 | 1 | 1.01 | 1.03 | 1.02 | 0.985 |
| NCI-H2087 | 0.981 | 0.982 | 1.05 | 1.18 | 1.05 |
| NCI-H2126 | 1.01 | 0.966 | 1.01 | 0.983 | 1.05 |
| NCI-H2170 | 0.868 | 1.01 | 1.04 | 0.982 | 0.946 |
| NCI-H2228 | 0.832 | 1.17 | 1.16 | 0.966 | 0.962 |
| NCI-H2342 | 1.12 | 0.992 | 1.1 | 1.04 | 1.01 |
| NCI-H2347 | 1.04 | 1.02 | 1.06 | 1.08 | 1.04 |
| NCI-H2405 | 0.96 | 0.969 | 1.06 | 1.03 | 1.16 |
| NCI-H3122 | 0.947 | 0.963 | 0.955 | 0.966 | 0.999 |
| PC-3 [JPC-3] | 1.1 | 0.962 | 1.04 | 1.07 | 1.08 |
| PC-14 | 1 | 1.01 | 1.03 | 1.03 | 1.04 |
| RERF-LC-KJ | 0.964 | 1.01 | 1.07 | 0.95 | 0.954 |
| SK-LU-1 | 0.991 | 1.09 | 1.08 | 1.08 | 1.11 |
| SK-MES-1 | 0.988 | 1.01 | 1.06 | 1.01 | 1.03 |
| SW 900 | 1.11 | 0.853 | 1.11 | 1.04 | 0.952 |
| SW 1573 | 1.05 | 0.992 | 1.01 | 0.947 | 1.07 |
| UMC-11 | 0.959 | 0.941 | 0.992 | 0.981 | 0.939 |
